The nature of this data set: Acute toxicity, LD50 (mouse, i.v.). Type of data set: in vivo.

Among the data in patent publication US4423215A, “Method of preparing sodium salts of imidazoledicarboxylic acid substituted cephalosporin derivatives” (Ajinomoto Company, Inc., priority 1981, dated 1983) are LD50 values, retold here.

SMILES strings stand for the structures. Where a name gives a salt, the structure may show the parent alone. Read-outs that look alike come from different tables or passages of the source.

Regarding `O=C(O)C1=C(C[n+]2ccc(CCS(=O)(=O)[O-])cc2)CS[C@@H]2[C@H](NC(=O)[C@H](NC(=O)c3[nH]cnc3C(=O)O)c3ccccc3)C(=O)N12` [dipotassium salt, 7B-[D--(-)-α-(4-carboxyimidazole-5-carboxyamide)-phenylacetamide]-3-(4-β-sulfoethyl-pyridinium)-methyl-3-cepham-4-carboxylic acid], the LD50 (in general, the dose at which mortality reaches 50%) lay within 500 to 1000 mg/kg.

`O=C(O)C1=C(C[n+]2ccc(CCS(=O)(=O)[O-])cc2)CS[C@@H]2[C@H](NC(=O)[C@H](NC(=O)c3[nH]cnc3C(=O)O)c3ccccc3)C(=O)N12` [disodium salt, 7B-[D--(-)-α-(4-carboxyimidazole-5-carboxyamide)-phenylacetamide]-3-(4-β-sulfoethyl-pyridinium)-methyl-3-cepham-4-carboxylic acid, disodium salt]: the LD50 entry (disodium salt) is given as “more than 3 g/kg”.
